Columns and labels:
blackgrass [1] = experiment: Test A postemergence herbicide test; format: in vivo, Alopecurus myosuroides
Procedure, shortened: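 Injury was rated visually about 10 days after treatment on a 0 (no effect) to 100 (complete control) scale, compared with untreated plants. Test chemicals were sprayed postemergence onto greenhouse plants 2–10 cm high at one to two leaves, grown in a loam–sand blend.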

blackgrass [2] = experiment: Test C pre-/postemergence herbicide test; format: in vivo, Alopecurus myosuroides
Procedure, shortened: (§1)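 Pre-emergence: seeds sown in loam/sand blend and treated with compound in surfactant-containing solvent. Post-emergence: plants at 2–18 cm (1- to 4-leaf stage) in peat-based medium sprayed with the same formulation. Visual rating versus controls after 13–15 days in greenhouse, scale 0 (no effect) to 100 (complete control).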

galium = experiment: Test C pre-/postemergence herbicide test; format: in vivo, Galium aparine
Procedure, shortened: as §1

foxtail, giant = experiment: Test C pre-/postemergence herbicide test; format: in vivo, Setaria faberii
Procedure, shortened: as §1

barnyardgrass = experiment: Test C pre-/postemergence herbicide test; format: in vivo, Echinochloa crus-galli
Procedure, shortened: as §1

kochia = experiment: Test C pre-/postemergence herbicide test; format: in vivo, Kochia scoparia; details: Postemergence
Procedure, shortened: as §1

velvetleaf = experiment: Test C pre-/postemergence herbicide test; format: in vivo, Abutilon theophrasti
Procedure, shortened: as §1

[3] = Postemergence, 31 g ai/ha, scale 0 to 100 (0 no effect, 100 complete control)
[4] = Postemergence, 62 g ai/ha, scale 0 (no effect) to 100 (complete control)
[5] = Postemergence, 125 g ai/ha, scale 0 to 100 (0 no effect, 100 complete control)
[6] = Postemergence, 250 g ai/ha, scale 0 to 100 (0 no effect, 100 complete control)
[7] = Preemergence, 31 g ai/ha, scale 0 to 100, 0 is no effect and 100 is complete control
[8] = Preemergence, 62 g ai/ha, scale 0 to 100
[9] = Preemergence, 125 g ai/ha, scale 0 to 100 (0 no effect, 100 complete control)
[10] = Preemergence, 62 g ai/ha, scale 0 to 100 (0 no effect, 100 complete control)

**Q.** For `O=C1NCC(c2ccc(C(F)(F)F)cc2)C1C(=O)Nc1cccc(F)c1F` (racemic) [Compound 202], which “Plant response rating, Blackgrass” value (blackgrass [1]; 125 g ai/ha, 0 to 100 scale, 0 is no effect, 100 is complete control) is on record?
**A.** 50

**Q.** What about the “Blackgrass plant response rating (0 to 100 scale, 0 is no effect, 100 is complete control)” value (blackgrass [1]; 500 g ai/ha) of the same compound?
**A.** 50

**Q.** And the “Plant response rating, Blackgrass” value (blackgrass [2]; [3])?
**A.** 0

**Q.** What about the “Plant response rating, Blackgrass” value (blackgrass [2]; [4]) of the same compound?
**A.** 0

**Q.** What about the “Plant response rating, Blackgrass” value (blackgrass [2]; [5]) of the same compound?
**A.** 5

**Q.** And the “Plant response rating, Blackgrass” value (blackgrass [2]; [6])?
**A.** 10

**Q.** What about the “Blackgrass plant response rating” value (blackgrass [2]; [7]) of the same compound?
**A.** 70

**Q.** And the “Plant response rating, Blackgrass” value (blackgrass [2]; [8])?
**A.** 80

**Q.** And the “Plant response rating, Blackgrass” value (blackgrass [2]; [9])?
**A.** 90

**Q.** And the “Plant response rating (scale of 0 to 100), Blackgrass” value (blackgrass [2]; Preemergence, 250 g ai/ha)?
**A.** 90

**Q.** And the “Plant response rating, Galium” value (galium; [3])?
**A.** 80

**Q.** And the “Plant response rating, Galium” value (galium; [4])?
**A.** 80

**Q.** What about the “Plant response rating, Galium” value (galium; [5]) of the same compound?
**A.** 80

**Q.** And the “Plant response rating, Galium” value (galium; [6])?
**A.** 80

**Q.** What about the “Galium plant response rating” value (galium; [7]) of the same compound?
**A.** 85

**Q.** And the “Galium plant response rating” value (galium; [10])?
**A.** 90

**Q.** What about the “Plant response rating, Galium” value (galium; [9]) of the same compound?
**A.** 90

**Q.** And the “Plant response rating (scale of 0 to 100), Galium” value (galium; Preemergence, 250 g ai/ha)?
**A.** 90

**Q.** What about the “Plant response rating, Foxtail, Giant” value (foxtail, giant; [3]) of the same compound?
**A.** 5

**Q.** What about the “Plant response rating, Foxtail, Giant” value (foxtail, giant; [4]) of the same compound?
**A.** 25

**Q.** What about the “Plant response rating, Foxtail, Giant” value (foxtail, giant; [5]) of the same compound?
**A.** 70

**Q.** And the “Plant response rating, Foxtail, Giant” value (foxtail, giant; [6])?
**A.** 85

**Q.** What about the “Foxtail, Giant plant response rating” value (foxtail, giant; [7]) of the same compound?
**A.** 90

**Q.** What about the “Foxtail, Giant plant response rating” value (foxtail, giant; [10]) of the same compound?
**A.** 90

**Q.** And the “Plant response rating, Foxtail, Giant” value (foxtail, giant; [9])?
**A.** 95

**Q.** What about the “Plant response rating (scale of 0 to 100), Foxtail, Giant” value (foxtail, giant; Preemergence, 250 g ai/ha) of the same compound?
**A.** 98

**Q.** And the “Plant response rating, Barnyardgrass” value (barnyardgrass; [3])?
**A.** 25

**Q.** And the “Plant response rating, Barnyardgrass” value (barnyardgrass; [4])?
**A.** 65

**Q.** And the “Plant response rating, Barnyardgrass” value (barnyardgrass; [5])?
**A.** 65

**Q.** What about the “Plant response rating, Barnyardgrass” value (barnyardgrass; [6]) of the same compound?
**A.** 85

**Q.** What about the “Barnyardgrass plant response rating” value (barnyardgrass; [7]) of the same compound?
**A.** 90

**Q.** What about the “Plant response rating, Barnyardgrass” value (barnyardgrass; [8]) of the same compound?
**A.** 90

**Q.** What about the “Plant response rating, Barnyardgrass” value (barnyardgrass; [9]) of the same compound?
**A.** 95

**Q.** And the “Plant response rating (scale of 0 to 100; 0 is no effect, 100 is complete control), Barnyardgrass” value (barnyardgrass; Preemergence, 250 g ai/ha)?
**A.** 95

**Q.** And the “Plant response rating, Kochia” value (kochia; 31 g ai/ha, scale 0 to 100 (0 no effect, 100 complete control))?
**A.** 70

**Q.** And the “Plant response rating, Kochia” value (kochia; 62 g ai/ha, scale 0 (no effect) to 100 (complete control))?
**A.** 75

**Q.** What about the “Plant response rating, Kochia” value (kochia; 125 g ai/ha, scale 0 to 100 (0 no effect, 100 complete control)) of the same compound?
**A.** 80

**Q.** And the “Plant response rating, Kochia” value (kochia; 250 g ai/ha, scale 0 to 100 (0 no effect, 100 complete control))?
**A.** 80

**Q.** And the “Plant response rating, Velvetleaf” value (velvetleaf; [3])?
**A.** 10

**Q.** What about the “Plant response rating, Velvetleaf” value (velvetleaf; [4]) of the same compound?
**A.** 20

**Q.** What about the “Plant response rating, Velvetleaf” value (velvetleaf; [5]) of the same compound?
**A.** 30

**Q.** And the “Plant response rating, Velvetleaf” value (velvetleaf; [6])?
**A.** 55

**Q.** And the “Velvetleaf plant response rating” value (velvetleaf; [7])?
**A.** 10

**Q.** And the “Velvetleaf plant response rating” value (velvetleaf; [10])?
**A.** 30

**Q.** What about the “Plant response rating, Velvetleaf” value (velvetleaf; [9]) of the same compound?
**A.** 50

**Q.** And the “Plant response rating (scale of 0 to 100), Velvetleaf” value (velvetleaf; Preemergence, 250 g ai/ha)?
**A.** 65

From US10294202B2, “Pyrrolidinones as herbicides” (FMC Corporation, priority 2013, dated 2019)
